Test results as given in patent publication US6737383B1, “Herbicidal oxadiazolidines” (priority 1999, dated 2004).

Key:
[1] = test system: sugar beet; experiment: Test B pre/postemergence sugar beet; assay type: in vivo, Beta vulgaris; details: for Sugarbeets plant response rating: scale of 0 to 10 where 0 is no effect and 10 is complete control
Summary of the method: (§1)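 Response is a visual 0-to-10 score relative to untreated plants, where 0 means no effect and 10 means complete control, taken twelve to sixteen days after application. Treatments went onto soil at planting and onto foliage of 1- to 4-leaf plants, using a surfactant-containing non-phytotoxic solvent.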

[2] = test system: pigweed; experiment: Test B pre/postemergence pigweed; assay type: in vivo, Amaranthus retroflexus; details: for Redroot pigweed plant response rating: scale of 0 to 10 where 0 is no effect and 10 is complete control
Summary of the method: as §1

[3] = test system: cocklebur; experiment: Test B pre/postemergence cocklebur; assay type: in vivo, Xanthium strumarium; details: for Cocklebur plant response rating: scale of 0 to 10 where 0 is no effect and 10 is complete control
Summary of the method: as §1

[4] = test system: surinam grass; experiment: Test B pre/postemergence surinam grass; assay type: in vivo, Brachiaria decumbens
Summary of the method: as §1

[5] = test system: corn; experiment: Test B pre/postemergence corn; assay type: in vivo, Zea mays; details: for Corn plant response rating: scale of 0 to 10 where 0 is no effect and 10 is complete control
Summary of the method: as §1

[6] = test system: rice; experiment: Test B flood test rice; assay type: in vivo, Oryza sativa
Summary of the method: (§2)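 Plants were grown to the 2-leaf stage before treatment with test chemical, then held in a greenhouse for twelve to sixteen days. Injury was visually rated against untreated controls on a 0–10 scale, where 0 is no effect and 10 is complete control.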

[7] = test system: morningglory; experiment: Test B pre/postemergence morningglory; assay type: in vivo, Ipomoea hederacea; details: for Morningglory plant response rating: scale of 0 to 10 where 0 is no effect and 10 is complete control
Summary of the method: as §1

[8] = test system: purple nutsedge; experiment: Test B pre/postemergence purple nutsedge; assay type: in vivo, Cyperus rotundus; details: for Nutsedge plant response rating: scale of 0 to 10 where 0 is no effect and 10 is complete control
Summary of the method: as §1

[9] = test system: crabgrass; experiment: Test B pre/postemergence crabgrass; assay type: in vivo, Digitaria sanguinalis; details: for Crabgrass plant response rating: scale of 0 to 10 where 0 is no effect and 10 is complete control
Summary of the method: as §1

[10] = test system: giant foxtail; experiment: Test B pre/postemergence giant foxtail; assay type: in vivo, Setaria faberii; details: for Giant foxtail plant response rating: scale of 0 to 10 where 0 is no effect and 10 is complete control
Summary of the method: as §1

[11] = test system: duck salad; experiment: Test B flood test duck salad; assay type: in vivo, Heteranthera limosa
Summary of the method: as §2

[12] = test system: smallflower flatsedge; experiment: Test B flood test smallflower flatsedge; assay type: in vivo, Cyperus difformis
Summary of the method: as §2

[13] = test system: rape; experiment: Test B pre/postemergence rape; assay type: in vivo, Brassica napus; details: for Rape plant response rating: scale of 0 to 10 where 0 is no effect and 10 is complete control
Summary of the method: as §1

[14] = test system: soybean; experiment: Test B pre/postemergence soybean; assay type: in vivo, Glycine max; details: for Soybean plant response rating: scale of 0 to 10 where 0 is no effect and 10 is complete control
Summary of the method: as §1

[15] = test system: wild oat; experiment: Test B pre/postemergence wild oat; assay type: in vivo, Avena fatua; details: for Wild oats plant response rating: scale of 0 to 10 where 0 is no effect and 10 is complete control
Summary of the method: as §1

[16] = test system: bamyardgrass; experiment: Test B flood test barnyardgrass; assay type: in vivo, Echinochloa crus-galli
Summary of the method: as §2

[17] = Postemergence, Rate 125 g/ha, scale 0 to 10, 0 is no effect, 10 is complete control
[18] = Preemergence, Rate 62 g/ha, scale 0 to 10 (0 no effect, 10 complete control)
[19] = Rate 500 g/ha, Postemergence, scale 0 to 10, 0 no effect, 10 complete control
[20] = Postemergence (flood test), Rate 125 g/ha, scale 0 to 10, 0 is no effect, 10 is complete control
[21] = Rate 62 g/ha, Postemergence (flood test species), scale of 0 to 10 where 0 is no effect and 10 is complete control
[22] = Rate 62 g/ha, flood test species, Pre-emergence, visual evaluation after twelve to sixteen days
[23] = Rate 125 g/ha, Pre-emergence, flood test species, scale 0 to 10 where 0 is no effect and 10 is complete control
[24] = Rate 250 g/ha, Pre-emergence, flood-test species, scale 0 to 10, 0 is no effect, 10 is complete control
[25] = Rate 500 g/ha, listed under Postemergence (flood test species), scale 0 to 10, 0 no effect, 10 complete control
[26] = Rate 500 g/ha, Pre-emergence, flood test species, scale 0 to 10 (0 no effect, 10 complete control)

CC(C)N(C(=O)n1oc(=O)n(C2CCC2)c1=O)c1ccc(F)cc1F [Compound 351]
Plant response rating, Sugarbeets [1, 17]: 0
Plant response rating, Sugarbeets [1, 18]: 2
Sugarbeets plant response rating (0 to 10 scale) ([1]; Preemergence, Rate 125 g/ha): 2
Sugarbeets plant response rating ([1]; Preemergence, Rate 250 g/ha): 6
Sugarbeets plant response rating ([1]; Preemergence, Rate 500 g/ha): 8
Sugarbeets plant response rating ([1]; Rate 62 g/ha, Postemergence): 0
Plant response rating, Sugarbeets [1, 19]: 2
Plant response rating, Redroot pigweed [2, 17]: 0
Plant response rating, Redroot pigweed [2, 18]: 10
Redroot pigweed plant response rating (0 to 10 scale) ([2]; Preemergence, Rate 125 g/ha): 10
Redroot pigweed plant response rating ([2]; Preemergence, Rate 250 g/ha): 10
Redroot pigweed plant response rating ([2]; Preemergence, Rate 500 g/ha): 10
Redroot pigweed plant response rating ([2]; Rate 62 g/ha, Postemergence): 0
Plant response rating, Redroot pigweed [2, 19]: 7
Plant response rating, Cocklebur [3, 17]: 0
Plant response rating, Cocklebur [3, 18]: 0
Cocklebur plant response rating (0 to 10 scale) ([3]; Preemergence, Rate 125 g/ha): 0
Cocklebur plant response rating ([3]; Preemergence, Rate 250 g/ha): 0
Cocklebur plant response rating ([3]; Preemergence, Rate 500 g/ha): 0
Cocklebur plant response rating ([3]; Rate 62 g/ha, Postemergence): 0
Plant response rating, Cocklebur [3, 19]: 2
Plant response rating, B. signalgrass [4, 17]: 0
Plant response rating, B. signalgrass [4, 18]: 0
B. signalgrass plant response rating (0 to 10 scale, 0 is no effect, 10 is complete control) ([4]; Preemergence, Rate 125 g/ha): 0
B. signalgrass plant response rating ([4]; Preemergence, Rate 250 g/ha, scale of 0 to 10 where 0 is no effect and 10 is complete control): 2
B. signalgrass plant response rating ([4]; Preemergence, Rate 500 g/ha, scale of 0 to 10 where 0 is no effect and 10 is complete control): 4
B. signalgrass plant response rating ([4]; Rate 62 g/ha, Postemergence, scale of 0 to 10 where 0 is no effect and 10 is complete control): 0
Plant response rating, B. signalgrass ([4]; Rate 250 g/ha, Postemergence, scale of 0 to 10 where 0 is no effect and 10 is complete control): 0
Plant response rating, B. signalgrass [4, 19]: 4
Plant response rating, Corn [5, 17]: 0
Plant response rating, Corn [5, 18]: 0
Corn plant response rating (0 to 10 scale) ([5]; Preemergence, Rate 125 g/ha): 0
Corn plant response rating ([5]; Preemergence, Rate 250 g/ha): 3
Corn plant response rating ([5]; Preemergence, Rate 500 g/ha): 6
Corn plant response rating ([5]; Rate 62 g/ha, Postemergence): 0
Plant response rating, Corn [5, 19]: 0
Plant response rating, Rice [6, 20]: 0
Rice plant response rating [6, 21]: 0
Plant response rating, Rice (0 to 10 scale, 0 is no effect, 10 is complete control) [6, 22]: 0
Rice plant response rating [6, 23]: 0
Rice plant response rating [6, 24]: 0
Plant response rating, Rice [6, 25]: 0
Rice plant response rating [6, 26]: 0
Plant response rating, Morningglory [7, 17]: 4
Plant response rating, Morningglory [7, 18]: 0
Morningglory plant response rating (0 to 10 scale) ([7]; Preemergence, Rate 125 g/ha): 0
Morningglory plant response rating ([7]; Preemergence, Rate 250 g/ha): 0
Morningglory plant response rating ([7]; Preemergence, Rate 500 g/ha): 0
Morningglory plant response rating ([7]; Rate 62 g/ha, Postemergence): 3
Plant response rating, Morningglory [7, 19]: 6
Plant response rating, Nutsedge [8, 17]: 0
Plant response rating, Nutsedge [8, 18]: 0
Nutsedge plant response rating (0 to 10 scale) ([8]; Preemergence, Rate 125 g/ha): 0
Nutsedge plant response rating ([8]; Preemergence, Rate 250 g/ha): 0
Nutsedge plant response rating ([8]; Preemergence, Rate 500 g/ha): 9
Nutsedge plant response rating ([8]; Rate 62 g/ha, Postemergence): 0
Plant response rating, Nutsedge [8, 19]: 0
Plant response rating, Crabgrass [9, 17]: 1
Plant response rating, Crabgrass [9, 18]: 7
Crabgrass plant response rating (0 to 10 scale) ([9]; Preemergence, Rate 125 g/ha): 10
Crabgrass plant response rating ([9]; Preemergence, Rate 250 g/ha): 10
Crabgrass plant response rating ([9]; Preemergence, Rate 500 g/ha): 10
Crabgrass plant response rating ([9]; Rate 62 g/ha, Postemergence): 0
Plant response rating, Crabgrass [9, 19]: 9
Plant response rating, Giant foxtail [10, 17]: 7
Plant response rating, Giant foxtail [10, 18]: 10
Giant foxtail plant response rating (0 to 10 scale) ([10]; Preemergence, Rate 125 g/ha): 10
Giant foxtail plant response rating ([10]; Preemergence, Rate 250 g/ha): 10
Giant foxtail plant response rating ([10]; Preemergence, Rate 500 g/ha): 10
Giant foxtail plant response rating ([10]; Rate 62 g/ha, Postemergence): 0
Plant response rating, Giant foxtail [10, 19]: 9
Plant response rating, Ducksalad [11, 20]: 0
Ducksalad plant response rating [11, 21]: 0
Plant response rating, Ducksalad (0 to 10 scale, 0 is no effect, 10 is complete control) [11, 22]: 0
Ducksalad plant response rating [11, 23]: 0
Ducksalad plant response rating [11, 24]: 0
Plant response rating, Ducksalad [11, 25]: 4
Ducksalad plant response rating [11, 26]: 0
Plant response rating, S. Flatsedge [12, 20]: 6
S. Flatsedge plant response rating [12, 21]: 0
Plant response rating, S. Flatsedge (0 to 10 scale, 0 is no effect, 10 is complete control) [12, 22]: 0
S. Flatsedge plant response rating [12, 23]: 0
S. Flatsedge plant response rating [12, 24]: 0
Plant response rating, S. Flatsedge [12, 25]: 8
S. Flatsedge plant response rating [12, 26]: 0
Plant response rating, Rape [13, 17]: 0
Plant response rating, Rape [13, 18]: 0
Rape plant response rating (0 to 10 scale) ([13]; Preemergence, Rate 125 g/ha): 3
Rape plant response rating ([13]; Preemergence, Rate 250 g/ha): 6
Rape plant response rating ([13]; Preemergence, Rate 500 g/ha): 9
Rape plant response rating ([13]; Rate 62 g/ha, Postemergence): 0
Plant response rating, Rape [13, 19]: 5
Plant response rating, Soybean [14, 17]: 1
Plant response rating, Soybean [14, 18]: 0
Soybean plant response rating (0 to 10 scale) ([14]; Preemergence, Rate 125 g/ha): 0
Soybean plant response rating ([14]; Preemergence, Rate 250 g/ha): 0
Soybean plant response rating ([14]; Preemergence, Rate 500 g/ha): 2
Soybean plant response rating ([14]; Rate 62 g/ha, Postemergence): 1
Plant response rating, Soybean [14, 19]: 2
Plant response rating, Wild oats [15, 17]: 0
Plant response rating, Wild oats [15, 18]: 0
Wild oats plant response rating (0 to 10 scale) ([15]; Preemergence, Rate 125 g/ha): 0
Wild oats plant response rating ([15]; Preemergence, Rate 250 g/ha): 2
Wild oats plant response rating ([15]; Preemergence, Rate 500 g/ha): 4
Wild oats plant response rating ([15]; Rate 62 g/ha, Postemergence): 0
Plant response rating, Wild oats [15, 19]: 5
Plant response rating, Barnyardgrass [16, 20]: 3
Barnyardgrass plant response rating [16, 21]: 0
Plant response rating, Barnyardgrass (0 to 10 scale, 0 is no effect, 10 is complete control) [16, 22]: 0
Barnyardgrass plant response rating [16, 23]: 0
Plant response rating, Barnyardgrass ([16]; Rate 250 g/ha, Postemergence (flood test species), scale of 0 to 10 where 0 is no effect and 10 is complete control): 3
Barnyardgrass plant response rating [16, 24]: 0
Plant response rating, Barnyardgrass [16, 25]: 5
Barnyardgrass plant response rating [16, 26]: 0
